Data: patent US20090176817A1, “Method of Treatment of Diarrhea-Predominant Irritable Bowel Syndrome in a Subject” (priority 2005, published 2009)
Where two headings read alike, the source gives them in different places.

What was measured:
[1] = Study S.241.1.104: Ortho Tri-Cyclen pharmacokinetics with cilansetron 2 mg TID; type: in vivo, human; settings: for Cmin / Cmax / AUC / half-life: arith. mean; for AUC: read-out: AUC(0-τ); for half-life: read-out: T½ (converted)
Source text: The effects of concomitant administration of cilansetron and a commonly used oral contraceptive, Ortho Tri-Cyclen (ORC), on the pharmacokinetics and pharmacodynamics of ORC and the pharmacokinetics of cilansetron has been evaluated in a randomized, double-blind, placebo-controlled, multiple-dose, 2-period, crossover study in 20 healthy, female subjects, aged 19 to 42 years. Subjects received the following two treatments during each of two 28-day study periods (2 ORC cycles) in a randomized, crossover fashion: Treatment B (reference treatment)−ORC on Days 1-28 (standard ORC cycle)+placebo TID on Days 14-20 and a single dose of placebo on Day 21; Treatment A (test treatment)−ORC on Days 1-28 (standard ORC cycle)+cilansetron 2 mg TID on Days 14-20 and a single dose of cilansetron 2 mg on Day 21. […] For evaluation of the effect of concomitant cilansetron on the pharamacodynamics of ORC, blood samples were collected prior to morning dosing on Days 18, 19, 20, 26, 27, and 28 for measurement of serum progesterone (PG), luteinizing hormone (LH), and follicle stimulating hormone (FSH) concentrations, and untransformed data were compared statistically between treatments.

[2] = tested on: CYP3A4 (formation of 4-hydroxy metabolites of cilansetron); assay: in vitro; settings: human, human hepatic microsomes, probe cilansetron (100 μM), formation of the 4-hydroxy metabolites
[3] = tested on: CYP3A4 (cilansetron metabolism); assay: in vitro; settings: human, human hepatic microsomes, probe cilansetron (100 μM), overall metabolism
[4] = tested on: cilansetron metabolism (ketoconazole 25 μM used as general inhibitor); assay: in vitro; settings: human, human hepatic microsomes, probe cilansetron (100 μM), overall metabolism
[5] = tested on: patients with malignant tumors; assay: Study S.241.2.101: cisplatin-induced nausea and vomiting; type: in vivo, human; settings: IV 8 mg TID
Protocol: (§1) The effect of cilansetron on nausea and vomiting has been studied in 2 clinical studies in cancer patients. Both studies were randomized, singleblind, positive-controlled, parallel-group, pilot studies in male and female patients with malignant tumors, to investigate the effect of cilansetron on cytostatic-induced nausea and vomiting. In both studies, patients were on their first cycle of chemotherapy and were being treated with cisplatin (275 mg/m2 as a single dose in Study S.24 1.2.10 1 and […] for 5 days in Study K.24 1 S O 17). Patients in Study S.24 1.2.10 1 were aged 40-74 years (ITT population=16) and patients in Study K.24 1 S O 17 were aged 39-74 years (ITT population=19). In both studies, patients were randomized to receive either […] or IV ondansetron 8 mg TID for 1 day (Study S.241.2.101) or 5 days (Study K.2415017), corresponding to the day(s) of their cisplatin administration. If nausea and vomiting were completely controlled on a treatment day, the second and/or third doses of cilansetron or ondansetron could be omitted on that day. The primary efficacy parameter in both studies was the combination of the occurrence of vomiting and the severity of nausea, with a responder being defined as a patient with no vomiting and not more than mild nausea during the treatment day(s). […]

[6] = tested on: patients with malignant tumors; assay: Study K.241.5017: cisplatin-induced nausea and vomiting; type: in vivo, human; settings: IV 8 mg TID
Protocol: as §1

[7] = female, human, plasma, oral, ORC + Cilansetron 2 mg TID, Day 21
[8] = female, human, plasma, oral, ORC + Placebo, Day 21

For `C#C[C@]1(O)CC[C@H]2[C@@H]3CCc4cc(O)ccc4[C@H]3CC[C@@]21C` [EE, ethinyl estradiol], the Cmin ([1]; ORC + Cilansetron 2 mg TID, Day 21) was 0.022 ng/mL, the Cmin ([1]; ORC + Placebo, Day 21) was 0.024 ng/mL and the Cmax [1, 7] was 0.144 ng/mL. For the same molecule, the AUC [1, 7] was 1.21 ng·h/mL, the half-life [1, 7] was 20.9 h and the Tmax ([1]; female, human, plasma, oral, ORC + Cilansetron 2 mg TID, Day 21, median) was 1.25 h. It also gave a Cmax [1, 8] of 0.156 ng/mL, an AUC [1, 8] of 1.32 ng·h/mL and a half-life [1, 8] of 21.2 h. The “Mean AUC(0-τ) decrease with concomitant cilansetron” value ([1]; in vivo) was 10% and the “Mean Cmax decrease with concomitant cilansetron” value ([1]; in vivo) was 8%.
Work on `CC(=O)N1CCN(c2ccc(OCC3COC(Cn4ccnc4)(c4ccc(Cl)cc4Cl)O3)cc2)CC1` (stereo not shown) [ketoconazole] yielded an inhibition at 1 μM [2] of 47%, an inhibition at 1 μM [3] of about 70% and an inhibition at 25 μM [4] of 93%.
For `Cc1nccn1CC1CCc2c(c3ccccc3n2C)C1=O` (stereo not shown) [ondansetron, reference compound], the Response rate [5] was 25.0% and the Response rate [6] was 60.0%.
